Results as given in the NIST ThermoML archive (doi:10.1016/j.fluid.2013.08.041).
± gives the expanded uncertainty stated by the source.

Conditions: Liquid; for Critical pressure: Direct measurement; for Normal boiling temperature: Ebulliometric method (Recirculating still); for Critical temperature: Visual observation in a stirred cell

| Compound | Critical pressure [kPa] | Normal boiling temperature [°C] | Critical temperature [K] |
| --- | --- | --- | --- |
| Cc1cc(C)c2ccccc2c1 [1,3-dimethylnaphthalene] | 2740 ± 160 | 265.1 ± 0.2 | 772 ± 16 |
| Cc1ccc(C)c2ccccc12 [1,4-dimethylnaphthalene] | 2790 ± 160 | 265.1 ± 0.2 | 778 ± 16 |
| Cc1cccc2ccccc12 [1-methylnaphthalene] | 3540 ± 220 | 244.6 ± 0.2 | 773 ± 16 |
| CCc1ccc2ccccc2c1 [2-ethylnaphthalene] | 2790 ± 160 | 254.1 ± 0.2 | 763 ± 16 |
| Cc1ccc2ccccc2c1 [2-methylnaphthalene] | 3300 ± 200 | 241.1 ± 0.2 | 755 ± 16 |
